Source: publication PMC8294803, “A Roadmap to the Structure-Related Metabolism Pathways of Per- and Polyfluoroalkyl Substances in the Early Life Stages of Zebrafish (Danio rerio)” (Environmental Health Perspectives, 2021)
“And” between values parts separate entries of the source, which are not always exact repeats. Equal values may be shown once. “Also recorded” adds a separate entry of the source. Read-outs that look alike come from different tables or passages of the source.

Tests used:
[1] = biological target: T1, recombinant human liver carboxylesterase 1 (hCES1) (Homo sapiens, UniProt P23141); experiment: Hydrolysis of PFAS by recombinant hCES1; type: in vitro ADME; details: for concentration of corresponding hydrolysis product detected from parent PFAS, hCES1 / concentration of corresponding hydrolysis product detected from parent PFAS, Control: 10 µM parent PFAS, three replicates; for concentration of corresponding hydrolysis product detected from parent PFAS, hCES1: incubated with hCES1; for concentration of corresponding hydrolysis product detected from parent PFAS, Control: vehicle control group without hCES1; for Concentration of hydrolysis product: from 10μM of parent, 100μg/L hCES1, 37°C; for Parent PFAS, hCES1 (%) / Parent PFAS, Control (%): 10 μM PFAS, single replicates; for Parent PFAS, hCES1 (%): 100 μg/L hCES1, phosphate buffer 37 °C 1 hour, axis %Control; for Parent PFAS, Control (%): without hCES1, phosphate buffer 37 °C 1 hour
T1 construct: purchased Sigma Aldrich
T1 sequence (P23141 18-567): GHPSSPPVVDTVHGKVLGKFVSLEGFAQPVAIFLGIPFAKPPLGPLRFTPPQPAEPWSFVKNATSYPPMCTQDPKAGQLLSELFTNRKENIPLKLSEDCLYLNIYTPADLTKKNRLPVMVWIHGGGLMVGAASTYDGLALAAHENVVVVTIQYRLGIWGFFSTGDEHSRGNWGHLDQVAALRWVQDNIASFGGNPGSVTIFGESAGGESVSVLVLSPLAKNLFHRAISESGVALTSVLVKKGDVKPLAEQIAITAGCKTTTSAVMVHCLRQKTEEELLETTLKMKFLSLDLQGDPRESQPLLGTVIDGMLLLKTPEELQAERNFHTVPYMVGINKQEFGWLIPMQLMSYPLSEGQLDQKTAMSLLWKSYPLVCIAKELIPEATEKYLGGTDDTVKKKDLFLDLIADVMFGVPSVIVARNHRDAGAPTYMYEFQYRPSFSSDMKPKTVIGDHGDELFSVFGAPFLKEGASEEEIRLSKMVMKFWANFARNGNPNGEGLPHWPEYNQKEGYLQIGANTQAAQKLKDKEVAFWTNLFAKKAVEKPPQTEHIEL
Method: Because recombinant zebrafish CES is not available, we decided to use hCES1 to evaluate the structure-related hydrolysis of PFAS. […] In vitro enzymatic activity experiments were carried out for 1 h in 1.5-mL tubes with 100μL phosphate buffer ( 137 mM sodium chloride, 10 mM phosphate buffer, 2.7 mM potassium chloride; pH 7.4) at 37°C with shaking. Reaction mixtures contained different concentrations of PFAS (1, 10, and 50μM ) and 100μg/L hCES1. […] To stop the hydrolysis reaction, four times the volume of ice-cold methanol was added. The hCES1 protein was precipitated out by centrifugation ( 14,000×g , 10 min). The supernatant was transferred to a new tube and analyzed via MS for the analysis of parent compounds and suspected metabolites (i.e., carboxylates).

[2] = system: zebrafish embryos; details: for pericardial oedemata, Mean / spinal curvature, Mean / tail dysplasia, Mean: 5μM through 120 hpf, malformation rate; for Mortality (%): 5 µM, exposure through 120 hpf; for Lethal effects on zebrafish larvae: 5μM, 5 d
[3] = system: zebrafish larvae; experiment: Nontargeted analysis of PFAS metabolites in zebrafish larvae (high-resolution MS); details: for Metabolites / hydrolysis products in zebrafish larvae: in vivo, nontargeted analysis; for Profile of metabolites (%): Alcohol / Peak intensity: Alcohol (parent FTOH): zebrafish larvae; for Profile of metabolites (%): Alcohol: Figure 5B; for Peak intensity: Alcohol (parent FTOH): single replicates, Figure 5A
Method: (§1) Zebrafish embryos were collected immediately after spawning, within 1 h, and subsequently transferred to 24-well plates with 1mL of facility water ( 0.036g sea salt, 0.15g sodium bicarbonate in 2L of reverse osmosis water). […] Three well replicates on the same plate were conducted for each concentration of individual chemical. […] Seven batches of experiments were performed to test all 74 PFAS. DMSO controls were incorporated in each batch of exposure experiments. Three replicates were performed for each treatment group, and 20 embryos were used for each replicate. […] For daily replenishment, 2.5mL of old exposure medium were replaced with freshly prepared medium every 24 h from 24 to 96 h post fertilization (hpf). Hatched or dead embryo numbers were recorded every 24 hpf, after which dead embryos were discarded from the growth media. Dead embryos or unhatched embryos were not used for PFAS measurement because the metabolism of PFAS might have been impacted. Zebrafish larvae collection occurred at 120 hpf. First, the larvae were anesthetized by cooling the plate in ice water (0–4°C) for ∼20 min . Then 8–15 larvae in each well were transferred into 1.5-mL tubes. Exposure media was carefully removed, and then the larvae were weighed (wet weight) after blotting excess water with a paper towel. […] Samples were stored at −80 °C until further chemical analysis was performed. Survival rate and hatching rate were calculated by summarizing all the documented data from the whole treatment duration. […] The exposure experiment of PFOSA was repeated using the same procedure as described above.
(§2) Each sample was spiked with 2μL of 0.2μg/mL mass-labeled PFAS mixture. Following this, 500μL of dichloromethane/methanol (2:1, vol/vol) was added to each sample for PFAS extraction. Larvae were then homogenized via ultrasonic probe, followed by 30 min of shaking and 30 min of sonication. Each sample was centrifuged at 14,000×g for 5 min, after which the supernatant was transferred to new tubes. Extraction was repeated once and the two supernatants were combined, evaporated under nitrogen flow, and reconstituted in 200μL of methanol for MS analysis.
(§3) Three microliters of each zebrafish extract was applied to a C18 column ( 1.5μm; 2.1mm×50mm; Thermo Scientific) and analyzed using a Vanquish ultra-HPLC system (Thermo Fisher Scientific) coupled to a Q Exactive high-resolution mass spectrometer (Thermo Fisher Scientific). The sampler and column compartments were maintained at 4°C and 40°C, respectively. The aqueous mobile phase solution (A) consisted of water, whereas the organic mobile phase solution (B) consisted of acetonitrile. […] MS data was acquired in full scan mode (100–1000 m/z, 70,000 mass resolution, 3×10^6 maximum ions collected per 100 ms), and tandem MS (MS/MS) data was recorded by all-ion fragmentation (AIF) mode. Negative and positive ion modes were carried out simultaneously at a 10-min method duration. […] An overview of the analyses conducted on the various PFAS is available in Table S2.
Nontargeted data analysis was accomplished with R scripts that are available on Github (https://github.com/huiUofT/PFASmetabolite). […] The peak features were matched across samples with a mass tolerance of 2.5 ppm and a RT window of 20 s, after RT adjustment. The ratio of abundances of each feature in treatment groups relative to the control group (DMSO) was calculated. The p -values of the difference between two groups were determined by student’s t -tests.

[4] = system: zebrafish larvae; experiment: Bioconcentration factors (BCF) of PFAS in zebrafish larvae; details: zebrafish larvae; for BCF 0.5µM: 0.5 µM exposure; for BCF 0.5µM / BCF 5µM: 120 hpf, three replicates; for BCF 5µM: 5 µM exposure
Method: as §1, §2, §3
GraphPad Prism (version 7.0.4; GraphPad Software) and R studio (version 1.1.456; R Studio Inc.) software was used, and an ANOVA with Dunnett tests was employed to evaluate the statistical significance of the percentage hatched and mortality rate. Exponential regressions were used to determine the relationships between bioconcentration factor (BCF) and binding affinities ( Kd ) to L-FABP.

[5] = system: liver fatty acid binding protein (L-FABP); set-up: method as in Yang et al. 2020; details: ref Yang et al. 2020, cited from earlier work

Molecule | concentration of corresponding hydrolysis product detected from parent PFAS, hCES1 [1] | concentration of corresponding hydrolysis product detected from parent PFAS, Control [1] | Concentration of hydrolysis product [1] | pericardial oedemata, Mean [2] | spinal curvature, Mean [2] | tail dysplasia, Mean [2] | Mortality (%) [2] | Metabolites / hydrolysis products in zebrafish larvae [3] | Parent PFAS, hCES1 (%) [1] | Parent PFAS, Control (%) [1] | Lethal effects on zebrafish larvae [2] | BCF 0.5µM [4] | BCF 5µM [4] | L-FABP ligand [5] | Profile of metabolites (%): Alcohol [3] | Peak intensity: Alcohol (parent FTOH) [3] | BCF at 0.5μM compared with 5μM [4] | Lethal effects on zebrafish larvae ([2]; listed as PFOSA) | Kd ([5]; read-out: Kd (μM), L-FABP binding affinity)
2,2-Difluoroethyl triflate [compound 13] | 0 nM | 0 nM | not detected | 2.22% | 0.00% | 1.11% | 2.2% | metabolites were not detected | – | – | – | – | – | – | – | – | – | – | –
2-(Trifluoromethoxy)ethyl trifluoromethanesulfonate [compound 10] | 0 nM | 0 nM | not detected | 2.22% | 1.11% | 0.00% | 0% | metabolites were not detected | – | – | – | – | – | – | – | – | – | – | –
C=C(C)C(=O)OCCC(F)(F)C(F)(F)C(F)(F)C(F)(F)C(F)(F)C(F)(F)F [compound 2, 6:2 Fluorotelomer methacrylate] | – | – | – | 3.33% | 1.11% | 4.44% | 0% | hydrolysis products (i.e., sulfated 6:2 FTOH) were also detected | – | – | – | – | – | – | – | – | – | – | –
CNS(=O)(=O)C(F)(F)C(F)(F)C(F)(F)C(F)(F)C(F)(F)C(F)(F)C(F)(F)C(F)(F)F [compound 16, N-Methylperfluorooctanesulfonamide] | – | – | – | 0.00% | 0.00% | 0.00% | – | – | 89.36% and 92.00% and 92.59% | 93.34% and 78.46% and 128.20% | strongest lethal effects | 292.232 L/kg | 89 ± 9.4 L/kg | not identified as L-FABP ligands | – | – | – | – | –
OCC(F)(F)OC(F)(F)C(F)(F)OC(F)(F)CO [compound 32, 1H,1H,8H,8H-Perfluoro-3,6-dioxaoctane-1,8-diol] | – | – | – | 1.11% | 0.00% | 1.11% | 3.3% | – | – | – | – | 5.939 L/kg | 8.4 ± 1.1 L/kg | – | 48.26% | 13344387 and 7489514 and 11717785 | comparable or even higher BCFs at 5μM | – | –
COC(=O)C(F)(F)C(F)(F)C(F)(F)C(F)(F)C(F)(F)F [compound 36, Methyl perfluorohexanoate] | – | – | not detected | 1.11% | 0.00% | 0.00% | 4.4% | metabolites were not detected | – | – | – | – | – | – | – | – | – | – | –
COC(=O)C(F)(F)C(F)(F)C(F)(F)F [compound 47, Methyl heptafluorobutyrate] | – | – | not detected | 2.22% | 1.11% | 0.00% | 0% | metabolites were not detected | – | – | – | – | – | – | – | – | – | – | –
NS(=O)(=O)C(F)(F)C(F)(F)C(F)(F)C(F)(F)C(F)(F)C(F)(F)C(F)(F)C(F)(F)F [compound 60, Perfluorooctanesulfonamide] | – | – | – | 0.00% | 0.00% | 0.00% | 100% | – | 83.48% and 89.94% and 97.43% | 81.21% and 101.71% and 117.08% | strongest lethal effects | 501 ± 19 L/kg and 501.032 L/kg | – | – | – | – | – | no zebrafish larvae from the 5-μM group survived; also recorded: All zebrafish larvae were dead | 5.87 µM
OCC(F)(F)C(F)(F)C(F)(F)C(F)(F)C(F)(F)C(F)F [compound 67, Dodecafluoroheptanol] | – | – | – | 1.11% | 0.00% | 0.00% | 0% | – | – | – | – | – | – | – | 0.00% | 0 | – | – | –
OCCC(F)(F)C(F)(F)C(F)(F)C(F)(F)C(F)(F)C(F)(F)F [compound 70, 6:2 Fluorotelomer alcohol] | – | – | – | 0.00% | 0.00% | 0.00% | 0% | – | – | – | – | – | – | – | 0.00% | 0 | – | – | –
